Legend:
ATF4 = ATF4 chromatin immunoprecipitation sequencing in primary neurons; format: cell-based, mouse; conditions: 10 mM, 6 h
Experimental: ChIP-seq was performed according to the ChIPmentation protocol with minor modifications. In brief, 40 million primary neurons were used for each condition. Cells were fixed in methanol free formaldehyde (1% final concentration) for 10 min at room temperature with slow rotation to allow the cross-linking of chromatin proteins and DNA. Cross-linking was stopped by incubation with 0.125 M glycine for 5 min at room temperature. The cells were washed twice with ice-cold phosphate-buffered saline (PBS) and 2 ml of cell scrapping solution was added cell were scrapped and collected in respective tubes. Tubes with cells were centrifuged at 2800 rpm for 10 min at 4° C. and supernatant was aspirated out. Cell pellets left in the tube were resuspended in 300 μl of 0.25% SDS sonication buffer (10 mM Tris-HCl [pH 8.0], 2 mM EDTA, 0.25% SDS, and protease inhibitor cocktail). The lysates were transferred to 1.5 ml TPX microtubes for sonication (Diagenode, Catalog number: 20190430) and sonicated by Biorupter sonication device (Diagenode) to shear genomic DNA into 200-600 bp fragments. The lysates were centrifuged to remove debris and were then diluted 1:1.5 in equilibration buffer (10 mM Tris-HCl [pH 8.0], 1 mM EDTA, 1.67% Triton X-100, 0.17% sodium deoxycholate, 233 mM NaCl, and protease inhibitor cocktail). […]

[1] = test system: Creba, Crebb, Bdnf exon IV; assay: Plasticity gene expression in human i.p.s. derived mature cortical neurons; format: cell-based; conditions: increasing concentrations, 6 h
Experimental: Human iPSC line (C1-1) was previously generated from skin biopsy samples of newborn and had been fully characterized and passaged on MEF feeder layers (Wen et al. 2014). All studies followed institutional IRB and ISCRO protocols approved by University of Pennsylvania Perelman School of Medicine. Human iPSCs were differentiated into cortical neurons following the previously established protocol (Wen et al. 2014). Briefly, hiPSCs colonies were detached from the feeder layer with 1 mg/ml collagenase (Thermo Fisher Scientific) treatment for 30 min and suspended in embryonic body (EB) medium, consisting of bFGF-free iPSC medium supplemented with 2 μM Dorsomorphin (Tocris) and 2 μM A-83 (Tocris), in non-treated polystyrene plates for 4 days with a daily medium change. […]
The gene expression of Bndf exon IV, Creba and Crebb in human i.p.s. derived neurons were also assessed using two step qPCR. […] Quantitative RT-PCR was then performed using SYBR green (Applied Biosystems) and the StepOnePlus™ Real-Time PCR System (Applied Biosystems). Quantitative levels for all genes were normalized to the housekeeping gene GAPDH and expressed relative to the relevant control samples. […]

[2] = test system: triple transgenic model of AD; conditions: cited from earlier work
mouse primary neurons = assay: Live-dead cell viability assay (calcein-AM / ethidium homodimer); format: cell-based; conditions: 1 mM to 15 mM, 24 h, cultured mouse primary neurons

## OC[C@H]1OC(O)C[C@@H](O)[C@@H]1O (stereo partly drawn) [2-DG, (4R,5S,6R)-6-(hydroxymethyl)oxane-2,4,5-triol]
ATF4
  ATF4 binding at Bdnf (ChIP-Seq): selective enrichment of ATF4 close to the transcription start site of Bdnf
  ATF4 binding to other plasticity genes (ChIP-Seq): enhanced binding of ATF4 to several plasticity genes
[1]
  gene plasticity response (Creba, Crebb, Bdnf exon IV mRNA): gene plasticity response of neurons was still the same
[2]
  brain energy metabolism and amyloid pathology: improve brain energy metabolism and amyloid pathology
Mouse primary neurons
  toxicity / neuronal cell death in live-dead assay: no toxicity
